Data taken from ChEMBL document CHEMBL1135912, “GBR compounds and mepyramines as cocaine abuse therapeutics: chemometric studies on selectivity using grid independent descriptors (GRIND)” (J Med Chem, 2002).
Several values for one entry are separate records, joined by “and”; a condition that tells them apart may be missing. Identical values can stand only once.

Key:
Assay type in all cases: cell-based
[1] = target: Sodium-dependent dopamine transporter (Homo sapiens) (UniProt Q01959); experiment: Inhibition of radioligand [125I]RTI-55 binding to human Dopamine transporter in clonal cells
[2] = target: Sodium-dependent dopamine transporter (Homo sapiens) (UniProt Q01959); experiment: Inhibition of [3H]dopamine uptake in HEK293 cells expressing recombinant Dopamine transporter
[3] = target: Sodium-dependent serotonin transporter (Homo sapiens) (UniProt P31645); experiment: Inhibition of [125I]RTI-55 binding to human SERT in clonal cells
Sodium-dependent serotonin transporter (Homo sapiens), sequence (P31645 whole entry, looked up): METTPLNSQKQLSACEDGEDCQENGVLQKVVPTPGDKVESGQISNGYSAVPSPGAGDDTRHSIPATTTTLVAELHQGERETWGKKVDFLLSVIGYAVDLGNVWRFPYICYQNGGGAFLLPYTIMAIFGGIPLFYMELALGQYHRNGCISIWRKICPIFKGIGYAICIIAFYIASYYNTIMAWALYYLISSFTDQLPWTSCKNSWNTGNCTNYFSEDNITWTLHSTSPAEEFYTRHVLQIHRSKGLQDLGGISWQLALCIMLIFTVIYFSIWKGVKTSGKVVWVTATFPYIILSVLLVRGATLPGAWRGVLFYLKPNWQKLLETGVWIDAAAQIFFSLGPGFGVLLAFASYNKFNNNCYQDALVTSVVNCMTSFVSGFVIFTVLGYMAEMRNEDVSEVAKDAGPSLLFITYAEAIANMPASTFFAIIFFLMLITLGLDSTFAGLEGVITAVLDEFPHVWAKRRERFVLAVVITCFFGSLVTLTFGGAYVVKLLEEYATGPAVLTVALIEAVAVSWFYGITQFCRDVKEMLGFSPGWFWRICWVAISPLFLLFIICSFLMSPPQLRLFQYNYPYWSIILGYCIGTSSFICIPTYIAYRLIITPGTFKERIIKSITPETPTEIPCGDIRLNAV

Sodium-dependent dopamine transporter (Homo sapiens), sequence (Q01959 whole entry): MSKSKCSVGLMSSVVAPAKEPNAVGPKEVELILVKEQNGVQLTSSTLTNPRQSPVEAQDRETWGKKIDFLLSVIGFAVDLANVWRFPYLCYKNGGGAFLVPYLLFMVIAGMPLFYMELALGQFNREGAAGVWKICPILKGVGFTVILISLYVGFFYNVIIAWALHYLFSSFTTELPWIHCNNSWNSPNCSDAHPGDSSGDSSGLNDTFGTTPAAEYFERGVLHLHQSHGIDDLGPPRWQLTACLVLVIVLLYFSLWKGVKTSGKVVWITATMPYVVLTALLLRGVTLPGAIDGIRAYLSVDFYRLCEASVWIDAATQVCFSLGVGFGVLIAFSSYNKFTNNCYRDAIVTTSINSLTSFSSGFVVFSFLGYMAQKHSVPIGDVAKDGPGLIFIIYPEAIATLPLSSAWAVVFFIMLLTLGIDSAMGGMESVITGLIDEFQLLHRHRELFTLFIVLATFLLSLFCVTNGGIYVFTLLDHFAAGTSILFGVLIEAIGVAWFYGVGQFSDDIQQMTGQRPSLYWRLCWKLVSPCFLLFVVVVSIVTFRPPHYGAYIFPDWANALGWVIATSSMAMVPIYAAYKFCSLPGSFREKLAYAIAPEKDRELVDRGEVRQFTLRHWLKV

Row | Compound | pKD [1] | Log 1/C [2] | pKD [3]
1 | Fc1ccc(/C=C/CN2CCN(CCOC(c3ccccc3)c3ccc(F)cc3)CC2)cc1 (stereo not drawn) | 7.64 | 7.22 | 6.7
2 | C(=C\c1ccccc1)/CN1CCN(CCN(Cc2ccccc2)c2ccccc2)CC1 | 6.35 | 6.74 | 6.22
3 | c1ccc(CCCN2CCN(CCCCN(Cc3ccccc3)c3ccccc3)CC2)cc1 | 7.86 | 5.76 | 6.88
4 | Fc1ccc(C(OCCN2CCN(CCCc3ccc(Cl)cc3)CC2)c2ccc(F)cc2)cc1 | 8.09 | 7.3 | 6.81
5 | COc1ccc(/C=C/CN2CCN(CCOC(c3ccc(F)cc3)c3ccc(F)cc3)CC2)cc1 | 7.19 | 6.47 | 6.43
6 | O=C(CCCCN1CCN(CCCc2ccccc2)CC1)N(Cc1ccccc1)c1ccccc1 | 7.24 | 6.92 | 6.69
7 | COc1ccc(OC)c(/C=C/C(=O)N2CCN(CCOC(c3ccc(F)cc3)c3ccc(F)cc3)CC2)c1 | 6.25 |  | 6.69
8 | Fc1ccc(C(OCCN2CCN(C/C=C/c3ccccc3)CC2)c2ccccc2)cc1 (stereo not drawn) | 7.48 | 7.1 | 6.67
9 | Fc1ccc(C(OCCN2CCN(C/C=C/c3ccccc3)CC2)c2ccc(Cl)cc2Cl)cc1 (stereo not drawn) | 7.18 | 5.86 | 6.28
10 | Fc1ccc(C(OCCN2CCN(CCCc3ccccc3)CC2)c2ccccc2)cc1 (stereo not drawn) | 7.69 | 7.8 | 6.21
11 | Fc1ccc(/C=C/CN2CCN(CCOC(c3ccc(F)cc3)c3ccc(F)cc3)CC2)cc1 | 8.41 | 6.96 | 6.64
12 | O=C(CCCN1CCN(CCCc2ccccc2)CC1)N(Cc1ccccc1)c1ccccn1 | 6.25 | 6.61 | 5.88
13 | Fc1ccc(CCCN2CCN(CCOC(c3ccccc3)c3ccc(F)cc3)CC2)cc1 (stereo not drawn) | 7.51 | 7.49 | 6.33
14 | COc1ccc(CN(CCN2CCN(CCCc3ccccc3)CC2)c2ccccn2)cc1 | 6.66 | 6.57 | 6.79
15 | c1ccc(CCCN2CCN(CCN(Cc3ccccc3)c3ccccc3)CC2)cc1 | 6.66 | 5.96 | 5.92
16 | COc1ccc(N(CCN2CCN(C/C=C/c3ccccc3)CC2)Cc2ccccc2)cc1 |  |  | 6.55
17 | Clc1ccc(C(OCCN2CCN(C/C=C/c3ccccc3)CC2)c2ccc(Cl)cc2)cc1 | 7.42 | 6.62 | 6.48
18 | COc1ccc(OC)c(/C=C/CN2CCN(CCOC(c3ccc(F)cc3)c3ccc(F)cc3)CC2)c1 | 8.42 | 6.43 | 6.74
19 | Cc1ccc(/C=C/C(=O)N2CCN(CCOC(c3ccc(F)cc3)c3ccc(F)cc3)CC2)cc1 | 6.1 | 5.21 | 6.71
20 | COc1ccc(CN(CCCN2CCN(CCCc3ccccc3)CC2)c2ccccn2)cc1 | 7.8 | 7.08 | 7.23
21 | Fc1ccc(C(OCCN2CCN(C/C=C/c3ccccc3)CC2)c2ccc(F)cc2)cc1 (stereo in doubt; 26) | 6.39 | 6.97 | 6.02
22 | Cc1ccc(C(OCCN2CCN(C/C=C/c3ccccc3)CC2)c2ccccc2)cc1 (stereo not drawn) | 6.95 | 6.78 | 5.95
23 | Fc1ccc(/C=C/CN2CCN(CCOC(c3ccccc3)c3ccccc3)CC2)cc1 | 7.8 | 7.26 | 5.88
24 | Fc1ccc(C(OCCN2CCN(C/C=C/Cc3ccccc3)CC2)c2ccc(F)cc2)cc1 | 8.29 | 6.86 | 7.14
25 | O=C(CN1CCN(CCCc2ccccc2)CC1)N(Cc1ccccc1)c1ccccc1 | 5.97 | 6.28 | 5.54
26 | c1ccc(CCCN2CCN(CCN(Cc3ccccc3)c3ccccn3)CC2)cc1 | 7.04 | 6.91 | 6.28
27 | Fc1ccc(C(OCCN2CCN(C/C=C/c3ccccc3)CC2)c2ccc(F)cc2)cc1 (stereo in doubt; 15) | 8.11 | 7.08 | 6.44

Row | Compound | pKD [1] | Log 1/C [2] | pKD [3]
28 | COc1ccc(CN(CCN2CCN(C/C=C/c3ccccc3)CC2)c2ccccn2)cc1 | 5.66 |  | 6.64
29 | O=C(CCCN1CCN(CCCc2ccccc2)CC1)N(Cc1ccccc1)c1ccccc1 | 7.56 | 7.12 | 6.28
30 | Fc1ccc(CN(CCCN2CCN(CCCc3ccccc3)CC2)c2ccc(F)cc2)cc1 | 7.86 | 6.82 | 6.48
31 | CN(CCc1ccccc1)CCN1CCN(CCCc2ccccc2)CC1 | 6.26 | 6.85 | 5.58
32 | Fc1ccc(CN(CCN2CCN(CCCc3ccccc3)CC2)c2ccc(F)cc2)cc1 | 7.28 |  | 6.57
33 | O=C(/C=C/c1c(Cl)cccc1Cl)N1CCN(CCOC(c2ccc(F)cc2)c2ccc(F)cc2)CC1 | 5.82 |  | 6.68
34 | Fc1ccc(CCCN2CCN(CCOC(c3ccc(F)cc3)c3ccc(F)cc3)CC2)cc1 | 8.25 | 6.42 | 6.44
35 | C(=C\c1ccccc1)/CN1CCN(CCN(Cc2ccccc2)c2ccccn2)CC1 | 6 | 6.1 | 6.17
36 | Fc1ccc(CN(CCCN2CCN(CCCc3ccccc3)CC2)c2ccccn2)cc1 | 7.95 | 6.91 | 6.55
37 | COc1ccc(C(OCCN2CCN(C/C=C/c3ccccc3)CC2)c2ccccc2)cc1 (stereo not drawn) |  |  | 6.16
38 | Cc1ccc(/C=C/CN2CCN(CCOC(c3ccc(F)cc3)c3ccc(F)cc3)CC2)cc1 | 7.32 | 6.43 | 6.18
39 | Fc1ccc(C(OCCN2CCN(C/C=C/c3ccc(Cl)cc3)CC2)c2ccc(F)cc2)cc1 | 7.65 | 6.66 | 6.09
40 | Brc1ccc(CN(CCN2CCN(CCCc3ccccc3)CC2)c2ccc(Br)cc2)cc1 | 6.01 |  | 5.79
41 | Fc1ccc(C(OCCN2CCN(C/C=C/c3ccccc3)CC2)c2ccc(Cl)cc2)cc1 (stereo not drawn) | 8.41 | 6.7 | 6.72
42 | O=C(/C=C/c1ccccc1Cl)N1CCN(CCOC(c2ccc(F)cc2)c2ccc(F)cc2)CC1 | 6.14 | 5.24 | 6.77
43 | Fc1ccc(CN(CCN2CCN(CCCc3ccccc3)CC2)c2ccccn2)cc1 | 7.19 | 6.24 | 6.64
44 | COc1cccc(C(OCCN2CCN(C/C=C/c3ccccc3)CC2)c2cccc(Br)c2)c1 (stereo not drawn) | 6.88 | 6.05 | 6.13
45 | Fc1ccc(CCCN2CCN(CCOC(c3ccccc3)c3ccccc3)CC2)cc1 | 7.4 | 6.41 | 5.74
46 | COc1ccc(/C=C/C(=O)N2CCN(CCOC(c3ccc(F)cc3)c3ccc(F)cc3)CC2)cc1 | 6.31 | 5.87 | 6.85
47 | Fc1ccc(C(OCCN2CCN(C/C=C/c3ccccc3)CC2)c2ccc(F)cc2)cc1 (stereo in doubt; 24) | 7.76 | 8.38 | 7.79
48 | COc1ccc(N(CCN2CCN(CCCc3ccccc3)CC2)Cc2ccccc2)cc1 | 6.04 | 6.67 | 6.59
49 | Cc1ccc(CN(CCN2CCN(CCCc3ccccc3)CC2)c2ccccc2)cc1 | 6.37 | 5.49 | 6.09
50 | c1ccc(CCCN2CCN(CCCCCN(Cc3ccccc3)c3ccccc3)CC2)cc1 | 7.5 | 5.83 | 6.63
51 | c1ccc(CCCN2CCN(CCCN(Cc3ccccc3)c3ccccc3)CC2)cc1 |  | 6.07 and 5.83 | 
52 | Fc1ccc(C(OCCN2CCN(Cc3ccccc3)CC2)c2ccc(F)cc2)cc1 | 7.01 | 6.12 | 6.74
53 | O=C(/C=C/c1ccc(Cl)cc1)N1CCN(CCOC(c2ccc(F)cc2)c2ccc(F)cc2)CC1 | 6.37 | 5.44 | 7.14
